Test results reported in ChEMBL document CHEMBL1153649, “Peptidyl epoxides as inhibitors of -chymotrypsin: Remarkable change from irreversible to reversible competitive inhibitor as a consequence of the improvement of binding affinity” (Bioorg Med Chem Lett, 1996).

Legend:
[1] = target: T1, Chymotrypsinogen B (Homo sapiens, UniProt P17538); experiment: Compound was tested for inhibitory activity against alpha-chymotrypsin
[2] = target: T1, Chymotrypsinogen B; experiment: Inhibitory potency was evaluated against alpha-chymotrypsin

T1 sequence (P17538 34-164 limits assumed, other chains not shown): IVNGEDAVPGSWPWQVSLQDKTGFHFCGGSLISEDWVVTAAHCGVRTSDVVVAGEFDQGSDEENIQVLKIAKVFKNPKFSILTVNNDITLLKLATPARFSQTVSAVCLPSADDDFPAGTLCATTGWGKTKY
T1 sequence (P17538 167-263 limits assumed, other chains not shown): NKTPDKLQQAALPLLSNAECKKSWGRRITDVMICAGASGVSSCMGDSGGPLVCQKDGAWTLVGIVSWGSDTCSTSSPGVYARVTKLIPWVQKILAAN

**Q.** For `O=C(N[C@@H](Cc1ccccc1)[C@@H]1CO1)C1CCCN1C(=O)c1ccccc1` (single isomer, unassigned), which Ki [1] is on record?
**A.** The Ki was 820 µM.

**Q.** `COC(=O)[C@@H](Cc1ccccc1)[C@@H]1CO1` (single isomer, unassigned) was tested. Which K inact/Ki [2] did it give?
**A.** Its K inact/Ki is 27 M⁻¹ s⁻¹.
